Among the data in US12152038B2, “Vasopressin receptor antagonists and products and methods related thereto” (Neumora Therapeutics, Inc., priority 2017, dated 2024) are IC50 values, retold here.

The structures appear in SMILES notation.

The target of this experiment is T1, human Arginine Vasopressin Receptor 1b (AVPR1b) (Homo sapiens, UniProt P47901).
T1 construct: expressed in transfected cells; host or cells: CHO (CHO-AVPR1b, kept under G418 selection)
T1 sequence (P47901 1-424): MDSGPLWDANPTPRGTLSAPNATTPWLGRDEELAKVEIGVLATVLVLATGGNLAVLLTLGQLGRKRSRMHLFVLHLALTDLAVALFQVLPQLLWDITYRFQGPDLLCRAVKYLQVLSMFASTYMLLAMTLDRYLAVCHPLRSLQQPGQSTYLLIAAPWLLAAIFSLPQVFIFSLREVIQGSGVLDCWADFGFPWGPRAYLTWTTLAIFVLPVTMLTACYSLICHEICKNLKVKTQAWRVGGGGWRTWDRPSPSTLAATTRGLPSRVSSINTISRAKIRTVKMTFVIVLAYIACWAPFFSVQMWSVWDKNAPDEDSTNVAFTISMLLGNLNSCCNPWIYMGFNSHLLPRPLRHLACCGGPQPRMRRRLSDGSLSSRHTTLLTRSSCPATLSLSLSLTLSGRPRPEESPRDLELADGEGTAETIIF
The experiment in a line: Vasopressin V1b receptor antagonist assay (FLIPR calcium, CHO-AVPR1b cells). Format: cell-based. Put shortly: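 CHO cells expressing human AVPR1b, loaded with Calcium-6 dye, were given compound (10-point, 1:3) for 15 min at 37 °C. Then AVP was added at its daily-determined EC80 in HBSS/HEPES. FLIPR fluorescence read for 3 min; antagonism seen as reduced AVP calcium response.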
As a reminder, the IC50 is the concentration needed to halve the response being measured. In the case of `CCC1COc2cc(Cl)ccc2N1C(=O)N1CC2(C1)CN(c1ccc(F)cn1)C2` (single isomer, unassigned) [1-55-B], the half-maximal inhibitory concentration (IC50) was at least 1000 nM.

In the case of `CC1COc2cc(Cl)ccc2N1C(=O)N1CC2(C1)CN(c1ncccc1F)C2` (single isomer, unassigned) [1-57-A], the IC50 was at least 1000 nM.

In the case of `CC1COc2cc(Cl)ccc2N1C(=O)N1CC2(C1)CN(c1cnccn1)C2` (single isomer, unassigned) [1-58-B], the half-maximal inhibitory concentration (IC50) is at least 1000 nM.

On to `COc1ccc2c(c1)OCC(C)N2C(=O)N1CC2(C1)CN(c1ccc(F)cn1)C2` (single isomer, unassigned) [1-59-B], for which the IC50 is at least 1000 nM.

As for `CC1COc2cc(Cl)ccc2N1C(=O)N1CC2(C1)CN(c1ccccn1)C2` (single isomer, unassigned) [1-60-B], the IC50 was at least 1000 nM.

Consider `CC1COc2cc(F)ccc2N1C(=O)N1CC2(C1)CN(c1cnccn1)C2` (single isomer, unassigned) [1-65-B], for which the IC50 is at least 1000 nM.

`CC1COc2cc(F)ccc2N1C(=O)N1CC2(C1)CN(c1ccccn1)C2` (single isomer, unassigned) [1-66-B]: the IC50 is at least 1000 nM.

Consider `CC1COc2cc(F)ccc2N1C(=O)N1CC2(C1)CN(c1ncccc1F)C2` (single isomer, unassigned) [1-67-A], for which the IC50 was at least 1000 nM.

As for `CC1COc2cc(Cl)ccc2N1C(=O)N1CC2(C1)CN(c1ccc(F)cn1)C2` (single isomer, unassigned) [1-73-A], the IC50 is at least 1000 nM.

Turning to `CC1COc2cc(Cl)ccc2N1C(=O)N1CC2(C1)CN(c1ccc(F)cn1)C2` (single isomer, unassigned) [1-73-B], the IC50 was at least 1000 nM.

In the case of `O=C(N1CC2(C1)CN(c1ccc(F)cn1)C2)N1CCC(O)c2cc(Cl)ccc21` (single isomer, unassigned) [13-1-B], the IC50 is at least 1000 nM.

For the molecule `CC1COc2cc(Cl)ccc2N1C(=O)N1CC2(C1)CN(c1ncc(F)cn1)C2` (single isomer, unassigned) [18-2-B], the IC50 was at least 1000 nM.

For the molecule `Cc1cnc(N2CC3(CN(C(=O)N4c5ccc(Cl)cc5OCC4C)C3)C2)nc1` (single isomer, unassigned) [20-13-B], the IC50 is at least 1000 nM.

With `CC1COc2cc(Cl)ccc2N1C(=O)N1CC2(C1)CN(c1cc(=O)n(C)cn1)C2` (single isomer, unassigned) [20-14-B], the IC50 is at least 1000 nM.

`CC1COc2cc(Cl)ccc2N1C(=O)N1CC2(C1)CN(c1nn(C)c3ncccc13)C2` (single isomer, unassigned) [20-15-B]: the IC50 is at least 1000 nM.

Turning to `Cc1cccc(N2CC3(CN(C(=O)N4CCOc5cc(Cl)ccc54)C3)C2)n1` [1-3], the half-maximal inhibitory concentration (IC50) was at least 1000 nM.

Take `O=C(N1CC2(C1)CN(c1cnc(F)cn1)C2)N1CCOc2cc(Cl)ccc21` [1-18]: the IC50 is at least 1000 nM.

For `Cc1cnc(N2CC3(CN(C(=O)N4CCOc5cc(Cl)ccc54)C3)C2)cn1` [1-20], the IC50 is at least 1000 nM.

`Cc1cncc(N2CC3(CN(C(=O)N4CCOc5cc(Cl)ccc54)C3)C2)n1` [1-22]: the IC50 is at least 1000 nM.

Regarding `Cc1nc(N2CC3(CN(C(=O)N4CCOc5cc(Cl)ccc54)C3)C2)ccc1F` [1-30], the IC50 is at least 1000 nM.

Take `N#Cc1cccc(N2CC3(CN(C(=O)N4CCOc5cc(Cl)ccc54)C3)C2)n1` [1-39]: the IC50 is at least 1000 nM.

As to `COc1nccnc1N1CC2(CN(C(=O)N3CCOc4cc(Cl)ccc43)C2)C1` [1-43], the IC50 was at least 1000 nM.

For `Cc1cc(F)nc(N2CC3(CN(C(=O)N4CCOc5cc(Cl)ccc54)C3)C2)c1` [1-45], the IC50 is at least 1000 nM.

With `O=C(N1CC2(C1)CN(c1ccc(F)c(F)n1)C2)N1CCOc2cc(Cl)ccc21` [1-49], the IC50 is at least 1000 nM.

Turning to `O=C(N1CC2(C1)CN(c1cc(F)cc(F)n1)C2)N1CCOc2cc(Cl)ccc21` [1-51], the IC50 was at least 1000 nM.

Turning to `N#Cc1ccnc(N2CC3(CN(C(=O)N4CCOc5cc(Cl)ccc54)C3)C2)c1` [1-53], the IC50 was at least 1000 nM.

For the molecule `CC1COc2cc(Cl)ccc2N1C(=O)N1CC2(C1)CN(c1ccccn1)C2` (centres unmarked) [1-60], the IC50 is at least 1000 nM.

For `O=C(N1CC2(C1)CN(c1ccc(F)cn1)C2)N1CCOc2cc(F)ccc21` [1-64], the IC50 is at least 1000 nM.

Consider `CC1COc2cc(F)ccc2N1C(=O)N1CC2(C1)CN(c1ncccc1F)C2` (centres unmarked) [1-67], for which the IC50 is at least 1000 nM.

`COc1ccc(N2CC3(CN(C(=O)N4CCOc5cc(Cl)ccc54)C3)C2)nc1` [1-68]: the IC50 is at least 1000 nM.

Regarding `O=C(N1CC2(C1)CN(c1cccc(F)n1)C2)N1CCOc2cc(Cl)ccc21` [1-69], the IC50 was at least 1000 nM.

On to `O=C(N1CC2(C1)CN(c1cc(F)ccn1)C2)N1CCOc2cc(Cl)ccc21` [1-70], for which the IC50 is at least 1000 nM.

Take `O=C(N1CC2(C1)CN(c1cccnn1)C2)N1CCOc2cc(Cl)ccc21` [1-71]: the IC50 was at least 1000 nM.

`O=C(N1CC2(C1)CN(c1cccnc1)C2)N1CCOc2cc(Cl)ccc21` [1-72]: the IC50 was at least 1000 nM.

With `CC1COc2cc(Cl)ccc2N1C(=O)N1CC2(C1)CN(c1noc3ccccc13)C2` (centres unmarked) [21-1, (6-(benzo[d]isoxazol-3-yl)-2,6-diazaspiro[3.3]heptan-2-yl)(7-chloro-3-methyl-2,3-dihydro-4H-benzo[b][1,4]oxazin-4-yl)methanone], the IC50 is at least 1000 nM.

With `CC1COc2cc(Cl)ccc2N1C(=O)N1CC2(C1)CN(c1ncccc1C#N)C2` (centres unmarked) [21-2], the IC50 is at least 1000 nM.

For the molecule `Cc1cncc(N2CC3(CN(C(=O)N4c5ccc(Cl)cc5OCC4C)C3)C2)n1` (centres unmarked) [21-3], the IC50 is at least 1000 nM.

On to `Cc1cnnc(N2CC3(CN(C(=O)N4c5ccc(Cl)cc5OCC4C)C3)C2)c1` (centres unmarked) [21-4], for which the IC50 was at least 1000 nM.

On to `CC1COc2cc(Cl)ccc2N1C(=O)N1CC2(C1)CN(c1ncncc1F)C2` (centres unmarked) [21-5], for which the IC50 is at least 1000 nM.

With `CC1COc2cc(Cl)ccc2N1C(=O)N1CC2(C1)CN(c1ccncn1)C2` (centres unmarked) [21-6], the IC50 was at least 1000 nM.

Take `Cc1nccc(N2CC3(CN(C(=O)N4c5ccc(Cl)cc5OCC4C)C3)C2)n1` (centres unmarked) [21-8]: the IC50 was at least 1000 nM.

For `CCc1cnc(N2CC3(CN(C(=O)N4c5ccc(Cl)cc5OCC4C)C3)C2)nc1` (centres unmarked) [21-9], the IC50 was at least 1000 nM.

On to `CC1COc2cc(Cl)ccc2N1C(=O)N1CC2(C1)CN(c1nccc(C(F)(F)F)n1)C2` (centres unmarked) [21-10], for which the IC50 is at least 1000 nM.

For `Cc1cc(N2CC3(CN(C(=O)N4c5ccc(Cl)cc5OCC4C)C3)C2)ncn1` (centres unmarked) [21-11], the IC50 is at least 1000 nM.
